Source: US20210292330A1, “PYRROLIDINE-FUSED HETEROCYCLES” (Erasca, Inc., priority 2020, published 2021)

Target: T1, KRAS 4B G12C protein (Homo sapiens, UniProt P01116, G12C)
T1 construct: This protein contained 188 amino acids in total, including an N-terminal 6-Histidine tag; made in house; host or cells: E. coli BL21
Test: In vitro covalent adduct formation (CAF) assay by LC-MS
Assay type: binding
Settings: compound 10 μM, protein 5 μM, 22° C., percentage of protein bound by the compound
Procedure: In vitro covalent adduct formation assay: Covalent adduct formation (CAF) reactions between Cys12 of the KRAS 4B G12C protein and some of the compounds of Table 1 were measured in vitro using liquid chromatography-mass spectrometry (LC-MS).
Recombinant Human KRAS 4B protein containing the G12C mutation was used in compound screening experiments. This protein contained 188 amino acids in total, including an N-terminal 6-Histidine tag, followed by a Tobacco Etch Virus (TEV) tag, followed by residues 1-169 of the native KRAS 4B sequence. The exact mass of the protein was 21,310 Da as determined by mass spectrometry. The full amino acid sequence is shown below:
The recombinant protein was expressed in E. coli BL21 cells and purified using affinity chromatography via a Ni-NTA column. […] Pure KRAS 4B G12C protein was diluted to a concentration of 5 μM in Tris Buffered Saline, pH 7.4. The compounds were dissolved in DMSO and added to the diluted protein to make a 10 μM concentration. The total DMSO concentration in the reaction was 4%. The reaction was mixed by pipetting and incubated at 22° C. for one hour. Aliquots of the reaction were taken over time and diluted 2:1 in 0.1% formic acid. The intact mass of the protein samples was measured by LC-MS using a QExactive+ mass spectrometer (Thermo Scientific). An amount of 500 ng total protein was injected onto a C8 reverse phase column, eluted with a seven-minute gradient of 30%-90% acetonitrile/0.1% formic acid, and analyzed for intact mass by the mass spectrometer. Adducts identified were confirmed to be within 1 Dalton of the expected mass, and the relative ratios of free:adduct protein were used to quantify the percentage of protein bound by the compound. CAF reactions were run in duplicate, with a typical variability of ±5%.

SMILES | CAF (10 minutes/60 minutes) at 10 micromolar: 10 minutes | CAF (10 minutes/60 minutes) at 10 micromolar: 60 minutes
C=CC(=O)N1CCN(c2nnc(OC)c3c2CN(Cc2cc(O)ccc2C)C3)[C@@H](C)C1 [1-37] | 0%/ 0% | 0%/ 0%
C=CC(=O)N1CCN(c2nc(OC[C@@H]3CCCN3C)nc3c2CN(Cc2ccccc2CCC)C3)C[C@@H]1CC#N [1-206] | 86% | 94%
C=CC(=O)N1CCN(c2nc(OC[C@@H]3CCCN3C)nc3c2CN(C2CCc4ccccc42)C3)C[C@@H]1C#N (stereo partly drawn) [1-155, (2R)-1-acryloyl-4-(6-(2,3-dihydro-1H-inden-1-yl)-2-(((S)-1-methylpyrrolidin-2-yl)methoxy)-6,7-dihydro-5H-pyrrolo[3,4-d]pyrimidin-4-yl)piperazine-2-carbonitrile] | 66% | 82%
C=CC(=O)N1CCN(c2nc(OC[C@@H]3CCCN3C)nc3c2CN(Cc2cc(C)ccc2Cl)C3)C[C@@H]1CC#N [1-80] | 94% | 96%
C=CC(=O)N1CCN(c2nc(OC[C@@H]3CCCN3C)nc3c2CN(Cc2c(Cl)cccc2OC(F)F)C3)C[C@H]1C [1-105] | 0%/ 0% | 0%/ 0%
C=CC(=O)N1CCN(c2nc(OC[C@@H]3CCCN3C)nc3c2CN(Cc2c(Cl)cccc2OC)C3)C[C@@H]1CCO [1-92] | 0%/ 0% | 0%/ 0%
C=CC(=O)N1CCN(c2nc(OC[C@@H]3CCCN3C)nc3c2CN(Cc2ccccc2C(C)CC)C3)C[C@@H]1CC#N (stereo partly drawn) [1-188] | 47% | 79%
C=CC(=O)N1CCN(c2nc(OC[C@@H]3CCCN3C)nc3c2CN(Cc2c(O)cccc2F)C3)C[C@@H]1CC#N [1-7, 2-((S)-1-acryloyl-4-(6-(2-fluoro-6-hydroxybenzyl)-2-(((S)-1-methylpyrrolidin-2-yl)methoxy)-6,7-dihydro-5H-pyrrolo[3,4-d]pyrimidin-4-yl)piperazin-2-yl)acetonitrile] | 96% | 97%
C=C(F)C(=O)N1CCN(c2nc(OC[C@@H]3CCCN3C)nc3c2CN(C2CCc4ccc(Cl)c(Cl)c42)C3)C[C@@H]1CC#N (stereo partly drawn) [1-337] | 27% | 74%
C=C(F)C(=O)N1CCN(c2nc(OC[C@@H]3CCCN3C)nc3c2CN(Cc2nc(N)ccc2Cl)C3)C[C@@H]1CC#N [1-339] | 83% | 92%
C=CC(=O)N1CCN(c2nc(OC[C@@H]3CCCN3C)nc3c2CN(C2CCOc4ccccc42)C3)C[C@@H]1CC#N (stereo partly drawn) [1-86] | 59% | 93%
C=CC(=O)N1CCN(c2nc(OC[C@@H]3CCCN3CC(C)C)nc3c2CN(C2CCc4ccccc42)C3)C[C@@H]1CC#N (stereo partly drawn) [1-192] | 53% | 65%
C=CC(=O)N1CCN(c2nc(OC)nc3c2CN(Cc2cc(F)ccc2Cl)C3)C[C@@H]1CC#N [1-76] | 0% | 7%
C#Cc1ccccc1CN1Cc2nc(OC[C@@H]3CCCN3C)nc(N3CCN(C(=O)C=C)[C@@H](CC#N)C3)c2C1 [1-235] | 0%/ 0% | 0%/ 0%
C=C(F)C(=O)N1CCN(c2nc(OC[C@@H]3CCCN3C)nc3c2CN(Cc2cc(O)ccc2C(C)C)C3)C[C@@H]1CC#N [1-218] | 95% | 94%
C=CC(=O)N1C2CC(=O)CC1CN(c1nc(O[C@@H]3CN(C)C[C@H]3OC)nc3c1CN(C1CCc4ccccc41)C3)C2 (stereo partly drawn) [1-232] | 0%/ 0% | 0%/ 0%
C=CC(=O)N1CC2CC1CN2c1nc(OC[C@@H]2CCCN2C)nc2c1CN(C1CCc3ccccc31)C2 (stereo partly drawn) [1-249] | 0%/ 0% | 0%/ 0%

SMILES | CAF (10 minutes/60 minutes) at 10 micromolar: 10 minutes | CAF (10 minutes/60 minutes) at 10 micromolar: 60 minutes
C=CC(=O)N1CCN(c2nc(OC[C@@H]3CCCN3C)nc3c2CN(Cc2cc(Cl)ccc2Cl)C3)C[C@@H]1CC#N [1-28] | 94% | 98%
C=CC(=O)N1CCN(c2nc(OC[C@@H]3CCCN3C)nc3c2CN(Cc2cc(O)ccc2CC)C3)C[C@@H]1CC#N [1-184] | 96% | 97%
C=CC(=O)N1CCN(c2nc(OC[C@@H]3CCCN3C)nc3c2CN(Cc2cccc4[nH]ncc24)C3)C[C@@H]1CC#N [1-108] | 84% | 97%
C=CC(=O)N1CCN(c2nc(OC[C@@H]3CCCN3C)nc3c2CN(C2CCc4ccccc42)C3)C[C@@H]1CCO (stereo partly drawn) [1-101] | 0% | 1%
C=CC(=O)N1CCN(c2nc(OC[C@@H]3CCCN3C)nc3c2CN(Cc2[nH]c(=O)ccc2Cl)C3)[C@@H](C)C1 [1-69, 6-((4-((S)-4-acryloyl-2-methylpiperazin-1-yl)-2-(((S)-1-methylpyrrolidin-2-yl)methoxy)-5,7-dihydro-6H-pyrrolo[3,4-d]pyrimidin-6-yl)methyl)-5-chloropyridin-2(1H)-one] | 0%/ 0% | 0%/ 0%
C=C(F)C(=O)N1CCN(c2nc(OC[C@@H]3CCCN3C)nc3c2CN(Cc2cc(O)ccc2Cl)C3)C[C@@H]1CC#N [1-87] | 97% | 99%
C=CC(=O)N1CCN(c2nc(OC[C@@H]3CCCN3C)nc3c2CN(Cc2c(Cl)cccc2OC(F)F)C3)C[C@@H]1CC#N [1-82] | 94% | 98%
C=CC(=O)N1CCN(c2nc(OC[C@@H]3CCCN3C)nc3c2CN(Cc2ccccc2)C3)C[C@@H]1CC#N [1-77] | 27% | 43%
C=CC(=O)N1CC2CC(=O)CC(C1)N2c1nc(OC[C@@H]2CCCN2C)nc2c1CN(C1CCc3ccccc31)C2 (stereo partly drawn) [1-251] | 0%/ 0% | 0%/ 0%
C=CC(=O)N1CCN(c2nc(O[C@@H]3CN(C)C[C@H]3OC)nc3c2CN(C2CCc4ccccc42)C3)C2CS(=O)(=O)CC21 (stereo partly drawn) [1-228] | 0%/ 0% | 0%/ 0%
C=C(F)C(=O)N1CCN(c2nc(OCc3cncn3C)nc3c2CN(C2CCc4ccccc42)C3)C[C@@H]1CC#N (stereo partly drawn) [1-140] | 0%/ 0% | 0%/ 0%
C=CC(=O)N1CCN(c2nc(OC[C@@H]3CCCN3C)nc3c2CN(Cc2cc(F)ccc2Cl)C3)[C@@H](C)C1 [1-34] | 0% | 14%
C=C(F)C(=O)N1CCN(c2nc(OC[C@@H]3CCCN3C)nc3c2CN(Cc2ccccc2C(F)(F)F)C3)C[C@@H]1CC#N [1-221] | 62% | 92%
C=CC(=O)N1CCN(c2nc(O[C@@H]3CN(C)C[C@H]3OC)nc3c2CN(C2CCc4ccccc42)C3)C[C@@H]1CC#N (stereo partly drawn) [1-170] | 31% | 53%
C=CC(=O)N1CCN(c2nc(OC[C@@H]3CCCN3C)nc3c2CN(C(C)c2c(F)cccc2OC)C3)C[C@@H]1CC#N (stereo partly drawn) [1-97] | 95% | 98%
C=C(F)C(=O)N1CCN(c2nc(OC[C@@H]3CCCN3C)nc3c2CN(Cc2n[nH]c4ccccc24)C3)C[C@@H]1CC#N [1-345] | 0%/ 0% | 0%/ 0%
